Source: BindingDB's records for doi:10.1021/jm00055a010 (Salk Institute, 1993)

Molecular target: T1, Neuropeptide Y receptor type 1 (Homo sapiens, UniProt P25929)
T1 sequence (P25929 whole entry): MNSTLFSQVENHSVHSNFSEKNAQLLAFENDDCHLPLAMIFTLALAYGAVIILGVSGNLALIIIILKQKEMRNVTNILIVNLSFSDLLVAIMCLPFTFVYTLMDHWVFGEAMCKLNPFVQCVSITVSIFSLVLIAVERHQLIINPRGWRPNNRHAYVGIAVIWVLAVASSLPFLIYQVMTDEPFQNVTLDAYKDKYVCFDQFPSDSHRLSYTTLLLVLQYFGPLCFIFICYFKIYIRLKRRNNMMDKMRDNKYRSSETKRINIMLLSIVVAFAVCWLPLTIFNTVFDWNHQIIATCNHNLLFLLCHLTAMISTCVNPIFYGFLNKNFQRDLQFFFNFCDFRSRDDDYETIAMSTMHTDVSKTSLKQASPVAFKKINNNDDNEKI
Assay: Tested against neuropeptide Y1 receptors using SK-N-MC human neuroblastoma cells

- Ki: > 1000 nM
SMILES: CC[C@H](C)[C@H](NC(=O)[C@H](CC(C)C)NC(=O)[C@H](CC(N)=O)NC(=O)[C@@H](NC(=O)[C@H]1CNC(=O)CC[C@H](NC(=O)[C@@H](N)Cc2ccc(O)cc2)C(=O)N[C@@H](CO)C(=O)N[C@@H](CCCCN)C(=O)N2CCC[C@H]2C(=O)NCC(=O)N[C@@H](CCCN=C(N)N)C(=O)N[C@@H](Cc2c[nH]cn2)C(=O)N1)[C@@H](C)CC)C(=O)N[C@H](C(=O)N[C@@H](CCCN=C(N)N)C(=O)N[C@@H](CCC(N)=O)C(=O)N[C@@H](CCCN=C(N)N)C(=O)N[C@@H](Cc1ccc(O)cc1)C(N)=O)[C@@H](C)O
